Test results from patent US20120029187A1, “HALOALKYLSULFONANILIDE DERIVATIVE” (Nissan Chemical Industries, Ltd., priority 2009, published 2012).

What was measured:
Type in all cases: in vivo
barnyardgrass [1] = test: Test Example 1: herbicidal effects in preemergence treatment under submerged conditions; details: dose 2.52 g/a
How it was run: (§1)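 Submerged conditions, 4 cm water over alluvial soil. Weeds sown and 2.5-leaf rice transplanted; compound applied preemergence to water surface, doses in g per are. Greenhouse, 25 to 30° C., three weeks, then 0–5 mortality rating.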

bulrush [2] = test: as above; details: dose 2.52 g/a
How it was run: as §1

ducksalad [3] = test: as above; details: dose 2.52 g/a
How it was run: as §1

transplanted rice = test: Test Example 1: preemergence treatment under submerged conditions, effect on crop; details: dose 2.52 g/a
How it was run: as §1

barnyardgrass [4] = test: Test Example 2: herbicidal effects during the vegetation period under submerged conditions; details: treatment during the vegetation period under submerged conditions; dose 2.52 g/a
How it was run: (§2)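 Barnyardgrass, bulrush and ducksalad were co-sown in alluvial soil flooded to 4 cm and grown in a greenhouse at 25 to 30° C. At the 1- or 2-leaf stage, water-diluted emulsifiable concentrates went onto the water surface at set doses (g/a). Herbicidal effect was scored three weeks later on a graded scale.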

bulrush [5] = test: as above; details: treatment during the vegetation period under submerged conditions; dose 2.52 g/a
How it was run: as §2

ducksalad [6] = test: as above; details: treatment during the vegetation period under submerged conditions; dose 2.52 g/a
How it was run: as §2

Italian ryegrass [7] = test: Test Example 3: herbicidal effects in soil treatment; details: dose 3.2 g/a
How it was run: (§3)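 Seeds were sown in sterilized diluvial soil and covered with about 1.5 cm of soil. Compounds, formulated as emulsifiable concentrates and diluted with water, were sprayed evenly over the soil surface at set doses in g/a. Herbicidal effect was scored on a rating scale three weeks later.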

barnyardgrass [8] = test: as above; details: dose 3.2 g/a
How it was run: as §3

common chickweed [9] = test: as above; details: dose 3.2 g/a
How it was run: as §3

common lambsquater [10] = test: as above; details: dose 3.2 g/a
How it was run: as §3

common ragweed [11] = test: as above; details: dose 3.2 g/a
How it was run: as §3

giant foxtail [12] = test: as above; details: dose 3.2 g/a
How it was run: as §3

large crabgrass [13] = test: as above; details: dose 3.2 g/a
How it was run: as §3

posumbu knotweed [14] = test: as above; details: dose 3.2 g/a
How it was run: as §3

redroot pigweed [15] = test: as above; details: dose 3.2 g/a
How it was run: as §3

velvetleaf [16] = test: as above; details: dose 3.2 g/a
How it was run: as §3

water foxtail [17] = test: as above; details: dose 3.2 g/a
How it was run: as §3

wild oat [18] = test: as above; details: dose 3.2 g/a
How it was run: as §3

Italian ryegrass [19] = test: Test Example 4: herbicidal effect in foliage treatment; details: dose 3.2 g/a, three weeks after the application
How it was run: (§4)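 A uniform foliar spray of emulsifiable concentrate, diluted with water to give the stated g/a dose, was applied to plants raised for 14 days from seed in sterilized diluvial soil at 25 to 30° C. Herbicidal effects were scored three weeks later.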

barnyardgrass [20] = test: as above; details: dose 3.2 g/a, three weeks after the application
How it was run: as §4

beadstraw = test: as above; details: dose 3.2 g/a, three weeks after the application
How it was run: as §4

common chickweed [21] = test: as above; details: dose 3.2 g/a, three weeks after the application
How it was run: as §4

common lambsquater [22] = test: as above; details: dose 3.2 g/a, three weeks after the application
How it was run: as §4

common ragweed [23] = test: as above; details: dose 3.2 g/a, three weeks after the application
How it was run: as §4

giant foxtail [24] = test: as above; details: dose 3.2 g/a, three weeks after the application
How it was run: as §4

large crabgrass [25] = test: as above; details: dose 3.2 g/a, three weeks after the application
How it was run: as §4

posumbu knotweed [26] = test: as above; details: dose 3.2 g/a, three weeks after the application
How it was run: as §4

redroot pigweed [27] = test: as above; details: dose 3.2 g/a, three weeks after the application
How it was run: as §4

velvetleaf [28] = test: as above; details: dose 3.2 g/a, three weeks after the application
How it was run: as §4

water foxtail [29] = test: as above; details: dose 3.2 g/a, three weeks after the application
How it was run: as §4

wild oat [30] = test: as above; details: dose 3.2 g/a, three weeks after the application
How it was run: as §4

CCN1COCN(Cc2ccccc2N(C(=O)OCCCl)S(=O)(=O)C(F)(F)F)C1=O [IV-7]
A: barnyardgrass, herbicidal effect (evaluation scale 0-5) (barnyardgrass [1]): 5 (mortality of 90% or above (nearly complete death)) | B: bulrush, herbicidal effect (evaluation scale 0-5) (bulrush [2]): 5 (mortality of 90% or above (nearly complete death)) | C: ducksalad, herbicidal effect (evaluation scale 0-5) (ducksalad [3]): 4 (mortality of at least 70% and less than 90%) | a: transplanted rice, effect on crop (evaluation scale 0-5) (transplanted rice): 0 (mortality of less than 5% (almost ineffective)) | A: barnyardgrass, herbicidal effect (evaluation scale 0-5) (barnyardgrass [4]): 5 (mortality of 90% or above (nearly complete death)) | B: bulrush, herbicidal effect (evaluation scale 0-5) (bulrush [5]): 5 (mortality of 90% or above (nearly complete death)) | C: ducksalad, herbicidal effect (evaluation scale 0-5) (ducksalad [6]): 5 (mortality of 90% or above (nearly complete death)) | herbicidal effect, H: Italian ryegrass (Italian ryegrass [7]): 4 (mortality of at least 70% and less than 90%) | herbicidal effect, A: barnyardgrass (barnyardgrass [8]): 5 (mortality of 90% or above (nearly complete death)) | herbicidal effect, N: common chickweed (common chickweed [9]): 4 (mortality of at least 70% and less than 90%) | herbicidal effect, L: common lambsquater (common lambsquater [10]): 4 (mortality of at least 70% and less than 90%) | herbicidal effect, J: common ragweed (common ragweed [11]): 0 (mortality of less than 5% (almost ineffective)) | herbicidal effect, E: giant foxtail (giant foxtail [12]): 3 (mortality of at least 40% and less than 70%) | herbicidal effect, D: large crabgrass (large crabgrass [13]): 5 (mortality of 90% or above (nearly complete death)) | herbicidal effect, M: posumbu knotweed (posumbu knotweed [14]): 0 (mortality of less than 5% (almost ineffective)) | herbicidal effect, K: redroot pigweed (redroot pigweed [15]): 1 (mortality of at least 5% and less than 20%) | herbicidal effect, I: velvetleaf (velvetleaf [16]): 5 (mortality of 90% or above (nearly complete death)) | herbicidal effect, G: water foxtail (water foxtail [17]): 5 (mortality of 90% or above (nearly complete death)) | herbicidal effect, F: wild oat (wild oat [18]): 1 (mortality of at least 5% and less than 20%) | H: Italian ryegrass, herbicidal effect (Italian ryegrass [19]): 3 (mortality of at least 40% and less than 70%) | A: barnyardgrass, herbicidal effect (barnyardgrass [20]): 4 (mortality of at least 70% and less than 90%) | O: beadstraw, herbicidal effect (beadstraw): 3 (mortality of at least 40% and less than 70%) | N: common chickweed, herbicidal effect (common chickweed [21]): 4 (mortality of at least 70% and less than 90%) | L: common lambsquater, herbicidal effect (common lambsquater [22]): 4 (mortality of at least 70% and less than 90%) | J: common ragweed, herbicidal effect (common ragweed [23]): 3 (mortality of at least 40% and less than 70%) | E: giant foxtail, herbicidal effect (giant foxtail [24]): 4 (mortality of at least 70% and less than 90%) | D: large crabgrass, herbicidal effect (large crabgrass [25]): 4 (mortality of at least 70% and less than 90%) | M: posumbu knotweed, herbicidal effect (posumbu knotweed [26]): 0 (mortality of less than 5% (almost ineffective)) | K: redroot pigweed, herbicidal effect (redroot pigweed [27]): 0 (mortality of less than 5% (almost ineffective)) | I: velvetleaf, herbicidal effect (velvetleaf [28]): 4 (mortality of at least 70% and less than 90%) | G: water foxtail, herbicidal effect (water foxtail [29]): 5 (mortality of 90% or above (nearly complete death)) | F: wild oat, herbicidal effect (wild oat [30]): 0 (mortality of less than 5% (almost ineffective))
